According to patent US11694765B2, “Interrogatory cell-based assays for identifying drug-induced toxicity markers” (Berg LLC, priority 2012, dated 2023):

What was measured:
melanoma cell = conditions: in the presence of VEGF; cited from earlier work
[1] = system: human mitochondrial energy metabolism genes in diabetic cardiomyocytes; assay: Transcriptional profiling of mitochondrial energy metabolism genes in diabetic cardiomyocytes; assay type: cell-based; conditions: diabetic drug plus rescue molecule (T+R) vs untreated (UT)
Experimental: (§1) Human cardiomyocytes were subject to conditions simulating an diabetic environment experienced by the disease-relevant cells in vivo. Specifically, the cells were exposed to hyperglycemic conditions and hyperlipidemia conditions. The hyperglycemic condition was induced by culturing cells in media containing 22 mM glucose. The hyperlipidemia condition was induced by culturing the cells in media containing 1 mM L-carnitine, 0.7 mM Oleic acid and 0.7 mM Linoleic acid. […]
Cell samples from each condition with each perturbation treatment were collected at various times following treatment, including after 6 hours of treatment. For certain conditions, media samples were also collected and analyzed.
iProfiling of changes in total cellular protein expression by quantitative proteomics was performed for cell and media samples collected for each condition and with each “environmental perturbation”, i.e, diabetic drug treatment, Coenzyme Q10 treatment or both, using the techniques described above in the detailed description. […] Following data collection (Ct), the final fold change over control was determined using the δCt method as outlined in manufacturer's protocol. […] Functional assays such as Oxygen consumption rate OCR were measured by employing the Seahorse analyzer essentially as recommended by the manufacturer. […]

[2] = system: GPAT1 and TAZ in hyperglycemia conditioned cardiomyocytes; assay: Western blotting of GPAT1 and TAZ protein expression in cardiomyocytes; assay type: cell-based, human; conditions: diabetic drug plus rescue molecule (T+R)
Experimental: Human cardiomyocytes were subject to conditions simulating an diabetic environment experienced by the disease-relevant cells in vivo. Specifically, the cells were exposed to hyperglycemic conditions and hyperlipidemia conditions. The hyperglycemic condition was induced by culturing cells in media containing 22 mM glucose. The hyperlipidemia condition was induced by culturing the cells in media containing 1 mM L-carnitine, 0.7 mM Oleic acid and 0.7 mM Linoleic acid.
The cell model comprising the above-mentioned cells, wherein the cells were exposed to each condition described above, was additionally “interrogated” by exposing the cells to an “environmental perturbation” by treating with a diabetic drug (T) which is known to cause cardiotoxicity, a rescue molecule (R) or both the diabetic drug and the rescue molecule (T+R). Specifically, the cells were treated with diabetic drug; or treated with rescue molecule Coenzyme Q10 at 0, 50 μM, or 100 μM; or treated with both of the diabetic drug and the rescue molecule Coenzyme Q10.
Protein expression levels of GPAT1 and TAZ for each condition and each treatment were tested with western blotting.

[3] = system: hyperglycemia conditioned cardiomyocytes; assay: Mitochondrial oxygen consumption rate (Seahorse analyzer); assay type: cell-based, human; conditions: diabetic drug plus rescue molecule (T1+R or T2+R)
Experimental: as §1
iProfiling of changes in total cellular protein expression by quantitative proteomics was performed for cell and media samples collected for each condition and with each “environmental perturbation”, i.e, diabetic drug treatment, Coenzyme Q10 treatment or both, using the techniques described above in the detailed description. […] Following data collection (Ct), the final fold change over control was determined using the δCt method as outlined in manufacturer's protocol. […] Functional assays such as Oxygen consumption rate OCR were measured by employing the Seahorse analyzer essentially as recommended by the manufacturer. OCR was recorded by the electrodes in a 7 μl chamber created with the cartridge pushing against the seahorse culture plate. […]

normal fibroblast = conditions: co-administration with VEGF; cited from earlier work

With `COC1=C(OC)C(=O)C(C/C=C(\C)CC/C=C(\C)CC/C=C(\C)CC/C=C(\C)CC/C=C(\C)CC/C=C(\C)CC/C=C(\C)CC/C=C(\C)CC/C=C(\C)CCC=C(C)C)=C(C)C1=O` [Coenzyme Q10] as the compound, how does the “level of Bcl2” value (melanoma cell) read?
Its value is “decreased”.

And the “transcriptional network and expression of human mitochondrial energy metabolism genes” value [1]?
Its value is “normalize gene expression and transcription”.

And the “transcriptional network and expression of human mitochondrial energy metabolism genes” value ([1]; listed as rescue molecule)?
Its value is “normalizes gene expression”.

What about the “protein expression level of GPAT1” value [2] of the same compound?
Its value is “normalized”.

What about the “protein expression level of TAZ” value [2] of the same compound?
The value was “normalized”.

And the “mitochondrial oxygen consumption rate (OCR)” value [3]?
The value was “normalized”.

What about the “mitochondrial oxygen consumption rate (OCR)” value ([3]; listed as rescue molecule) of the same compound?
The value was “normalizes OCR”.

What about the “levels of Bcl2” value (normal fibroblast) of the same compound?
The value was “no effect”.
